Patent US20230146507A1, “N-PHENYL-3-MERCAPTOPROPANAMIDE DERIVATIVES AS METALLO-BETA-LACTAMASE INHIBITORS FOR THE TREATMENT OF BACTERIAL INFECTIONS” (Helmholtz-Zentrum Für Infektionsforschung GmbH, priority 2020, published 2023)
In brackets after ≈: the same amount, converted by molar mass.

What was measured:
[1] = tested on: S. marcescens NDM-1 (T2352); assay: MIC assay, clinical isolate; type: cell-based; details: Serratia marcescens, read-out: MIC (mg/L) Imipenem
E. cloacae GIM-1 (T2218) = assay: MIC assay, clinical isolate; type: cell-based; details: Enterobacter cloacae, read-out: MIC (mg/L) Imipenem
E. coli producing NDM-1 = assay: MIC of imipenem in the presence of HIPS1686; type: cell-based; details: Escherichia coli
E. coli NDM-1 (T2359) = assay: Checkerboard assay with imipenem, E. coli NDM-1 (T2359); type: cell-based
Experimental: (§1) Fractional inhibitory concentration index (FICI). The checkerboard assay was performed to test for synergy in vitro. […] FICIs≤0.5 were defined as synergistic; FICIs from >0.5 to […] were defined as additive; FICIs from 1 to ≤4 were defined as indifferent and FICIs>4 were defined as antagonistic (Doern, C. D. When Does 2 plus 2 Equal 5? A Review of Antimicrobial Synergy Testing. J. Clin. Microbial. 2014, 52 (12), 4124-4128. https://doi.org/10.1128/JCM.01121-14).

E. coli VIM-1 (T2544) = assay: Checkerboard assay with imipenem, E. coli VIM-1 (T2544); type: cell-based
Experimental: as §1

[2] = tested on: P. aeruginosa IMP-1 (T2325); assay: MIC assay, clinical isolate; type: cell-based; details: Pseudomonas aeruginosa, read-out: MIC (mg/L) Imipenem
E. coli IMP-1 (T2360) = assay: Checkerboard assay with imipenem, E. coli IMP-1 (T2360); type: cell-based; details: Escherichia coli, read-out: Imipenem MIC
Experimental: as §1

E. coli NDM-7 (T2239) = assay: MIC assay, clinical isolate; type: cell-based; details: Escherichia coli, read-out: MIC (mg/L) Imipenem
MMP-8 = MMP-8 (Homo sapiens, UniProt P22894); assay: Selectivity assay on MMP-8; type: biochemical; details: read-out: % Inh. @ 100 μM MMP-8
Sequence of MMP-8 (P22894 101-467): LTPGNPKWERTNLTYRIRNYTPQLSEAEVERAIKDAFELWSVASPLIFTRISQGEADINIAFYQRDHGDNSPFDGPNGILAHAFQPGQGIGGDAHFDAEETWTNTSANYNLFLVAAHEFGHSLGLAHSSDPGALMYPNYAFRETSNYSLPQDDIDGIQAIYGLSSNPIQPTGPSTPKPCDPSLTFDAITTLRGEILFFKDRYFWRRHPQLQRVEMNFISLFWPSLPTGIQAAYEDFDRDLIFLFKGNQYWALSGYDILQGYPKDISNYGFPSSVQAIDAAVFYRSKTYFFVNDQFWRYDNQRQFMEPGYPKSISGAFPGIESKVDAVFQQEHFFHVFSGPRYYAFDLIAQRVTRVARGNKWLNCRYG
Experimental: (§2) Cytotoxicity assays and Selectivity assays. Cytotoxicity assays on HepG2, HEK293 and A549 cells and selectivity assays on various MMPs were performed as described previously (Haupenthal, J.; Baehr, C.; Zeuzem, S.; Piiper, A. RNAse A-like Enzymes in Serum Inhibit the Anti-Neoplastic Activity of SiRNA Targeting Polo-like Kinase 1. Int. J. Cancer 2007, 121 (1), 206-210. https://doi.org/10.1002/ijc.22665).

VIM-1 = molecular target: T1, VIM-1 (Pseudomonas aeruginosa, UniProt A0A0F7KYQ8); assay: In vitro inhibition assay (kinetic fluorescence-based activity assay), VIM-1; type: biochemical; details: Means and SD of at least two independent experiments
T1 construct: made in house
Experimental: (§3) Protein expression and purification. The expression of IMP-7, VIM-1, and NDM-1 was performed according to the protocol previously published by Klingler et al. (Klingler, F. M.; Wichelhaus, T. A.; Frank, D.; Cuesta-Bernal, J.; El-Delik, J.; Müller, H. F.; Sjuts, H.; Gottig, S.; Koenigs, A.; Pos, K. M.; et al. Approved Drugs Containing Thiols as Inhibitors of Metallo-β-Lactamases: Strategy to Combat Multidrug-Resistant Bacteria. J. Med. Chem. 2015, 58 (8), 3626-3630. https://doi.org/10.1021/jm501844d) with slight modifications.
(§4) In vitro inhibition assay. Activity assays for NDM-1, VIM-1, VIM-2 and IMP-7 were carried out, as described by Klingler et al. Final protein concentrations were 0.5 nM (NDM-1), 4.0 nM (VIM-1), and 0.1 nM (IMP-7) in a 50 mM HEPES buffer (pH 7.5, 0.01% Triton X-100) Substrate (Fluorocillin™ (Invitrogen, Darmstadt, Germany) was dissolved in assay buffer to a final concentration of 888 nM. Test compounds were dissolved and pre-diluted in DMSO (final concentration: 1%). In a black polystyrol 96-well plate (Corning) an amount of […] of the respective inhibitor solution at different concentrations was incubated with […] of respective protein containing buffer for 30 minutes at room temperature. […] of substrate solution was added. The readout of the emitted fluorescence was started immediately (45 s for 30 cycles) using a Tecan Infinite F200Pro (Tecan Group Ltd; excitation at 495 nm and emission at 525 nm). Blank controls were performed without enzyme. Positive controls were performed with enzyme but without inhibitor. The inhibitory activity of each test compound was measured in three independent experiments. For calculation of IC50 values, data obtained from measurements with eight different inhibitor concentrations were used. For the evaluation of the sigmoidal dose response equation (variable slope with four parameters) GraphPad Prism 5 (GraphPad Software, La Jolla, Calif., USA) was used.

MMP-3 = MMP-3 (Homo sapiens, UniProt P08254); assay: Selectivity assay on MMP-3; type: biochemical; details: read-out: % Inh. @ 100 μM MMP-3
Sequence of MMP-3 (P08254 100-477): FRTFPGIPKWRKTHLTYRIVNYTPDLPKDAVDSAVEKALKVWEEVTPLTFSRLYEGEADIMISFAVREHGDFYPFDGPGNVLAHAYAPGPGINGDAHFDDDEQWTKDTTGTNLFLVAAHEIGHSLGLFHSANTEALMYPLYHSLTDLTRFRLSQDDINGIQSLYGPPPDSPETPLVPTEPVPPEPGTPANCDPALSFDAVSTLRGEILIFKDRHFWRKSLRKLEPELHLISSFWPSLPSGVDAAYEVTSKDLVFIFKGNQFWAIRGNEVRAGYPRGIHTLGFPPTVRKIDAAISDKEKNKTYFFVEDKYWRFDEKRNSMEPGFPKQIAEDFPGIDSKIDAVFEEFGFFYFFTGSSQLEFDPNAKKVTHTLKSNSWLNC
Experimental: as §2

[3] = tested on: different isolates from E. coli and P. aeruginosa; assay: MIC assay, intrinsic antibacterial activity; type: cell-based; details: compound alone
[4] = Cytotoxicity assay on HEK293 cells; type: cell-based; details: human
Experimental: as §2

[5] = tested on: imipenem-resistant P. aeruginosa producing VIM-2; assay: Imipenem MIC with compound at single concentration; type: cell-based; details: compound at single concentration 1024 μg/mL
MMP-7 = MMP-7 (Homo sapiens, UniProt P09237); assay: Selectivity assay on MMP-7; type: biochemical; details: read-out: % Inh. @ 100 μM MMP-7
Sequence of MMP-7 (P09237 95-267): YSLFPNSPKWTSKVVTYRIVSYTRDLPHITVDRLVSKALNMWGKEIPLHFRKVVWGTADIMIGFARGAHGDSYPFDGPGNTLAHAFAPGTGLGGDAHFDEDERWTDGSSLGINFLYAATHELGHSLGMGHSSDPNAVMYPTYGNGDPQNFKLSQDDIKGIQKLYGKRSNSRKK
Experimental: as §2

[6] = Cytotoxicity assay on HepG2 cells; type: cell-based; details: human
Experimental: as §2

MMP-14 = MMP-14 (Homo sapiens, UniProt P50281); assay: Selectivity assay on MMP-14; type: biochemical; details: read-out: % Inh. @ 100 μM MMP-14
Experimental: as §2

MMP-1 = MMP-1 (Homo sapiens, UniProt P03956); assay: Selectivity assay on MMP-1; type: biochemical; details: read-out: % Inh. @ 100 μM MMP-1
Sequence of MMP-1 (P03956 100-469): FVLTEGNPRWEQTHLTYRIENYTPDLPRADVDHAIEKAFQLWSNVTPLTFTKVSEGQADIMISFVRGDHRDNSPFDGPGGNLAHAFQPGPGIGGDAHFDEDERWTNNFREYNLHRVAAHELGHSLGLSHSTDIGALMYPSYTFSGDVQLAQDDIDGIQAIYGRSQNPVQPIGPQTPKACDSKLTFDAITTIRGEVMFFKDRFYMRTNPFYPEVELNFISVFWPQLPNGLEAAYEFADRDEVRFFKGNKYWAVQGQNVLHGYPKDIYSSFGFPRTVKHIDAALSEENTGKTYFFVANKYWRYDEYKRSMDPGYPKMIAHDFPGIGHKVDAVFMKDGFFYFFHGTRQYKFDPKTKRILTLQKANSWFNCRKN
Experimental: as §2

MMP-2 = MMP-2 (Homo sapiens, UniProt P08253); assay: Selectivity assay on MMP-2; type: biochemical; details: read-out: % Inh. @ 100 μM MMP-2
Sequence of MMP-2 (P08253 110-660): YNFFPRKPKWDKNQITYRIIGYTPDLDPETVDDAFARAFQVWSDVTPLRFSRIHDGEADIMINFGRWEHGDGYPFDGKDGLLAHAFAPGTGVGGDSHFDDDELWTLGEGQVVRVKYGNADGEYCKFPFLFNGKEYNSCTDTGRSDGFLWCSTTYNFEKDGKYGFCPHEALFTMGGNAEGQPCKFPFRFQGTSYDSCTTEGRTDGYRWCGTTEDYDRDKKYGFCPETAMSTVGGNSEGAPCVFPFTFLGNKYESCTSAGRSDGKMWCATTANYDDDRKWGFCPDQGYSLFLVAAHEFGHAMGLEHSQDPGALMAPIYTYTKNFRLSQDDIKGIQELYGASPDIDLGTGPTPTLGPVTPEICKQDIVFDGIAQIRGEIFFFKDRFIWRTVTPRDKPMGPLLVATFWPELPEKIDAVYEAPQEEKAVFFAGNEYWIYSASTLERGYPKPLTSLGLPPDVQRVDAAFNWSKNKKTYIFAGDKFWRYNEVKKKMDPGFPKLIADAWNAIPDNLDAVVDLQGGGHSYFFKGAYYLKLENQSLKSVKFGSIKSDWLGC
Experimental: as §2

IMP-7 = IMP-7 (Pseudomonas aeruginosa, UniProt Q93AU3); assay: In vitro inhibition assay (kinetic fluorescence-based activity assay), IMP-7; type: biochemical; details: Means and SD of at least two independent experiments
Sequence of IMP-7 (Q93AU3 entry or part of it): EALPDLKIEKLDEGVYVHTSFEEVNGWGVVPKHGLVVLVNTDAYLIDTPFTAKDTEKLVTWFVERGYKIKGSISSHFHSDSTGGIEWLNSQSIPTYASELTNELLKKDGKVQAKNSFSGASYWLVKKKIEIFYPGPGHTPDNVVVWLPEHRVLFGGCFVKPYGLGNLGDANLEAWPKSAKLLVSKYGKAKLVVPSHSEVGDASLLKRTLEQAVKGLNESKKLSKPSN
Experimental: as §3, §4

[7] = Cytotoxicity assay on A549 cells; type: cell-based; details: human
Experimental: as §2

NDM-1 = molecular target: T2, NDM-1 (Klebsiella pneumoniae, UniProt C7C422); assay: In vitro inhibition assay (kinetic fluorescence-based activity assay), NDM-1; type: biochemical; details: Means and SD of at least two independent experiments
T2 construct: made in house
T2 sequence (C7C422 29-270, looked up, species assumed): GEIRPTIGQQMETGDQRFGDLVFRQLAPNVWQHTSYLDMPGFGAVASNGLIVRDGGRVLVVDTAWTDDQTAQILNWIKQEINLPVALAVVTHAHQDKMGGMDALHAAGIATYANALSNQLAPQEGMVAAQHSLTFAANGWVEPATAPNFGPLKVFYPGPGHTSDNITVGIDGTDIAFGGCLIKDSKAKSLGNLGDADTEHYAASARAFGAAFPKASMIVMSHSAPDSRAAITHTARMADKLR
Experimental: as §3, §4

SMILES: C[C@@H](O)[C@H]1C(=O)N2C(C(=O)O)=C(SCCN=CN)C[C@H]12 [Imipenem, reference compound]
- MIC [1]: 256 mg/L (≈ 855 µM)
- MIC (E. cloacae GIM-1 (T2218)): 2 mg/L (≈ 6.68 µM)
- MIC (E. coli producing NDM-1): 128 µg/mL
- MIC (E. coli NDM-1 (T2359); Escherichia coli, read-out: Imipenem MIC): 128 µg/mL
- Imipenem MIC (E. coli NDM-1 (T2359); Table 6, without compound): 128 µg/mL
- MIC (E. coli VIM-1 (T2544); Escherichia coli, read-out: Imipenem MIC, without compound): 32 µg/mL
- Imipenem MIC (E. coli VIM-1 (T2544); without compound): 64 µg/mL
- MIC [2]: 64 mg/L (≈ 214 µM)
- MIC (E. coli IMP-1 (T2360)): 2 µg/mL
- MIC (E. coli NDM-7 (T2239)): 32 mg/L (≈ 107 µM)

SMILES: O=C(CCS)Nc1ccc(Cl)c(Cl)c1 [HIPS1447, N-(3,4-Dichlorophenyl)-3-mercaptopropanamide]
- inhibition at 100 µM (MMP-8): 38.2 ± 24.8%
- IC50 (VIM-1): 0.1 µM
- inhibition at 100 µM (MMP-3): < 10%
- intrinsic antibacterial activity (MIC) [3]: no intrinsic antibacterial activity
- IC50 [4]: > 100 µM
- fold decrease of imipenem MIC value [5]: 64 fold
- inhibition at 100 µM (MMP-7): < 10%
- IC50 [6]: > 100 µM
- inhibition at 100 µM (MMP-14): 17.9 ± 7.8%
- inhibition at 100 µM (MMP-1): < 10%
- inhibition at 100 µM (MMP-2): 15.8 ± 13.5%
- IC50 (IMP-7): 5 ± 0.6 µM
- IC50 [7]: > 100 µM
- IC50 (NDM-1): 1.3 µM
